Results from patent US20230203175A1, “Anti-CD40 Antibody Combination Treatment for Cancer” (SEAGEN INC., priority 2020, published 2023).

Experiments:
murine CD40 = murine CD40 (Mus musculus, UniProt P27512); assay: Recognition of murine CD40; format: binding
cytokines (IFN-γ, IL-10) = assay: Cytokine production after administration to a patient; format: in vivo; conditions: when administered to a patient
FcγIII receptors = conditions: as described in US20170333556A1; cited from earlier work
CD40 signaling pathway = conditions: as described in US20170333556A1; cited from earlier work

murine CD40, sequence (P27512 20-289): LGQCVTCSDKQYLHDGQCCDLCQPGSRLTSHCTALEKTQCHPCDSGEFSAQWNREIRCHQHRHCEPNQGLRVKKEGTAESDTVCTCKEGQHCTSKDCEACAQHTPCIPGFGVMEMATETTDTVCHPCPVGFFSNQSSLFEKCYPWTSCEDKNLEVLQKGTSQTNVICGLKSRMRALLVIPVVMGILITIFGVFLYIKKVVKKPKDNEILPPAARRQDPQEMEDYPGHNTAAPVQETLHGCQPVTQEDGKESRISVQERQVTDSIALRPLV

Substance: SEA-CD40: non-fucosylated humanized IgG1 anti-CD40 monoclonal antibody; heavy and light chains SEQ ID NOs: 1 and 2
- recognition of murine CD40 (murine CD40): does not recognize murine CD40
- production of cytokines, including interferon-γ (IFN-γ) (cytokines (IFN-γ, IL-10)): induce production of cytokines
- production of immune-dampening cytokines, such as interleukin-10 (IL-10) (cytokines (IFN-γ, IL-10)): does not induce production
- binding to FcγIII receptors (FcγIII receptors): enhanced binding
- ability to activate the CD40 signaling pathway in immune cells (CD40 signaling pathway): enhanced ability
